Patent publication US20090246273A1, “Ketorolac Sublingual Spray for the Treatment of Pain” (priority 2008, published 2009)

Legend:
[1] = In vivo absorption of ketorolac spray from the sublingual cavity (plasma levels vs intravenous); design: species or system rabbit; conditions: rabbits
Protocol: These experiments determine the bioavailability of ketorolac after transmucosal administration to the sublingual tissue in rabbit and compare it to that after intravenous administration.
The transmucosal absorption of ketorolac was measured using an in vivo technique in rabbits. Following introduction of lidocaine local anesthesia, a catheter was placed in the marginal ear artery of the rabbit for blood sample collection. For intravenous administration, a catheter was placed in the marginal ear vein of the rabbit and ketorolac aqueous solution (0.5 mg/kg, 0.1 mL) was administered; a sterile drug solution was prepared by filtration (double 0.22 μm filters). A dose of […] ketorolac was injected into the marginal ear vein cannula followed by a 0.1 mL flush with 10% (v/v) heparin/normal saline solution to keep the cannula patent.
For sublingual spray administration, the ketorolac dose (3 mg/kg, 0.1 mL) of the ketorolac formulation was applied by spray to the sublingual mucosa of the rabbit.
Aliquot parts of 0.5 mL blood samples were collected at predetermined time points, collected into pre-heparinized tubes and immediately placed on ice. […]
Bioavailability of sublingually administered drug was calculated by comparing the plasma drug concentration between sublingual and intravenous delivery routes and expressed as a percentage of the intravenous bioavailability. […]

[2] = rapid metabolism of ketorolac; background on the intravenous mode of delivery; cited from earlier work

With `O=C(c1ccccc1)c1ccc2n1CCC2C(=O)O` (stereo not drawn) [ketorolac, 5-benzoyl-2,3-dihydro-1H-Pyrrolizine-1-carboxylic acid] as the compound, how does the “time of peak plasma concentration following transmucosal administration” value ([1]; sublingual spray 3 mg/kg single dose, n=3) read?
Its value is “approximately 10 minutes”.

What about the “absorption following transmucosal administration through the sublingual route (comparing areas under the plasma concentration versus time curves)” value ([1]; sublingual spray 3 mg/kg vs intravenous 0.5 mg/kg, over 180 minutes) of the same compound?
The value was “rapidly and completely absorbed”.

And the half-life [2]?
Its half-life is 4 to 5 h.
